The values below come from patent US9981972B2, “N-hydroxy bicyclic hydantoin carbamates as tools for identification of serine hydrolase targets” (ABIDE THERAPEUTICS, INC., priority 2014, dated 2018).

pIC50: −log10 of the molar value. Read-outs that look alike come from different tables or passages of the source.

Common to all, as to type: biochemical
The target in one test is T1, ABHD4 (Homo sapiens, UniProt Q8TB40).
T1 sequence (Q8TB40 1-342): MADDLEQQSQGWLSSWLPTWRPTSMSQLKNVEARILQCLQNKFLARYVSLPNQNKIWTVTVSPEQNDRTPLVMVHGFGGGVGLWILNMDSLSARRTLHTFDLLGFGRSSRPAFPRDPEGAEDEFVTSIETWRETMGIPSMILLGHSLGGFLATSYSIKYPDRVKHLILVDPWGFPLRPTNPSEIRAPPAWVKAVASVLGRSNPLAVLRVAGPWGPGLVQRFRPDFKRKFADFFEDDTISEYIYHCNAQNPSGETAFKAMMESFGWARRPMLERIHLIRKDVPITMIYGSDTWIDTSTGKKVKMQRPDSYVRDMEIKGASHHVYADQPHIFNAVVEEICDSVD
Description: NAPE substrate hydrolysis assay, ABHD4-transfected HEK293T cell lysates. The conditions noted are these: lysates from ABHD4-transfected HEK293T cells. How it is done:
NAPE hydrolysis was measured by following the release of oleic acid from the NAPE substrate (1,2-dioleoyl-sn-glycero-3-phospho (N-arachidonoyl) ethanolamine).

For a further test, the target named is T2, PPT1 (Homo sapiens, UniProt P50897).
T2 sequence (P50897 28-306): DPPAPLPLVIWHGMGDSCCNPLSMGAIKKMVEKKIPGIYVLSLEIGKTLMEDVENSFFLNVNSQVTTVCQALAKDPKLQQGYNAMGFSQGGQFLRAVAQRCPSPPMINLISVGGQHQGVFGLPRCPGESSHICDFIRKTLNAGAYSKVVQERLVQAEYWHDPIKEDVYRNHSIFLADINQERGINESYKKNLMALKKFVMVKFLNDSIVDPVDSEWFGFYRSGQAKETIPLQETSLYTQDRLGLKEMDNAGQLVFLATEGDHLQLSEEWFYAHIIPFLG
In words: PPT1 substrate assay in vitro, hPPT1-transfected HEK293T cell lysates. Set-up: expressed in transfected cells; host or cells: HEK293T. The conditions noted are these: for activity against PPT1 in situ and in vitro: in words, figures in the 9th table. The method, then:
PPT1 activity was assessed in vitro using a substrate assay adapted from previous studies (van Diggelen et al., Molecular genetics and metabolism 66, 240-244, 1999). Lysates from HEK293T cells transfected with an empty vector, or human PPT1 under a CMV promoter were adjusted to 1 mg/ml in PBS (25 μl), and then combined 1:1 with Mcllvain's phosphate/citrate buffer containing 0.375% (v/v) Triton-X 100 and 15 mM DTT (pH 5.0). This sample was pre-treated with inhibitor or DMSO for 30 minutes at 37° C., and 10 μl (5 μg protein) was used in the substrate assay as follows: Samples were diluted in a black 96-well plate (half-area) with 20 μl McIlvain's phosphate/citrate buffer (pH 5.0) containing 0.375% TX-100 and 15 mM DTT, as well as 0.64 mM MU-6S-Palm-PD-Glc and 0.1 U sweet almond glucosidase (Sigma). The reactions were incubated at 37° C. for 1 hour, quenched with 120 μl sodium bicarbonate buffer (pH 10.0), and hydrolysis by 4-MU fluorescence measured by excitement at […] and emission intensity at […]. 16 μg protein was used for analysis of native PC3 cells.
Compound 26 was then tested to see if it inhibited PPT1 activity using a substrate assay. Endogenous substrates for PPT1 remain poorly characterized, but this enzyme was assayed with a fluorogenic substrate 4-methylumbelliferyl-6-thio-palmitate-βD-glucopyranoside (MU-6S-Palm-βD-Glc). In this assay, PPT1 hydrolyzes the substrate's palmitoyl thioester bond, and exogenous sweet almond β-glucosidase deglycosylates and frees the fluorophore, 4-methylumbelliferone (4-MU), which is measured to assess PPT1 activity.

The target in a further test is T3, mABHD3 (Mus musculus, UniProt Q91ZH7).
T3 construct: expressed in transfected cells; host or cells: HEK293T, transient transfection, pCMV-Sport6; lysate used in vitro
T3 sequence (Q91ZH7 1-411): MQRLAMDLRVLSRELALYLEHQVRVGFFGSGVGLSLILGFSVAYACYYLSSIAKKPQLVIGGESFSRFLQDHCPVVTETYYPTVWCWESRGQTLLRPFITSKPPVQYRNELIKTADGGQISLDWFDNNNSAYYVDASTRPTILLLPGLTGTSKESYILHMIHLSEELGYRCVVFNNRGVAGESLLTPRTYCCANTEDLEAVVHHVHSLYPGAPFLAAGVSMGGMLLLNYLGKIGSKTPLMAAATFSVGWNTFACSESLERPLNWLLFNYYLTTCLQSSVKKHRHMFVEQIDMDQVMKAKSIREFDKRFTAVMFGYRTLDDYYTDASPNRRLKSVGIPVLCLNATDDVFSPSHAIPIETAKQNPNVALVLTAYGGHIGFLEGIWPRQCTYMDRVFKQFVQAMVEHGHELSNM
Description: Gel-based competitive ABPP, recombinant enzyme in transfected HEK293T cell lysates. The method, then:
HEK293T cells were seeded at 2×10^5 per well on 6 well plates and grown for 48 h. They were then transfected with mABHD3 (pCMV-Sport6), hABHD4 (pcDNA3.1/myc-his), hPPT1 (pCMV6-XL5), or hPPT1 S115A (pCMV6-XL5), by incubating 0.5 μg of DNA with 3 μL of PEI MAX (1 mg/mL, Polysciences, Inc) in serum-free DMEM for 30 min, then adding them to cells. After 48 h cells were either treated with compound in situ, as described above, or harvested for in vitro studies. The […] PPT1 mutation was introduced using QuikChange II Site Directed Mutagenesis Kit (Agilent) with the following primers: […]
Human ABHD3 and ABHD4 were recombinantly expressed by transient transfection in HEK293T cells, and the cell lysates were combined to provide a convenient assay for monitor inhibition of both enzymes by gel-based ABPP (see FIG. 8A).

Where [1] appears, read: cell lysates, pH 5.0, MU-6S-Palm-βD-Glc substrate, 95% confidence intervals in parentheses, read-out: IC50 for inhibition of human PPT1, in vitro (substrate).
The mark [2] stands for this setting: transfected HEK293T lysates, read-out: mABHD3 in vitro potency (IC50).

`O=C(ON1C(=O)C2CN(C(=O)N3CCOCC3)CCN2C1=O)N1CCC(CCc2ccc(Cl)cc2)CC1` (stereo not shown) [Compound 1, 7-(morpholine-4-carbonyl)-1,3-dioxohexahydroimidazo[1,5-a]pyrazin-2(3H)-yl 4-(4-chloro-phenethyl)piperidine-1-carboxylate]: on ABHD4, the “effect on NAPE hydrolysis activity of ABHD4” value is recorded as “neither Compound 26 nor Compound 1 altered”. In addition, the negative logarithm of the IC50 (pIC50) – broadly, −log10 of the IC50, conventionally taken in molar units – at PPT1 (setting [1]) is 4.82. On PPT1, the “activity against PPT1 in situ and in vitro” value is “did, however, inhibit PPT1 activity”.
For `COc1ccc(N2CCN(C(=O)ON3C(=O)C4CN(CC5CCN(Cc6ccccc6)CC5)CCN4C3=O)CC2)cc1` (stereo not shown) [Compound 26, 7-((1-benzylpiperidin-4-yl)methyl)-1,3-dioxohexahydroimidazo[1,5-a]pyrazin-2(3H)-yl 4-(4-methoxyphenyl)piperazine-1-carboxylate], the “effect on NAPE hydrolysis activity of ABHD4” value at ABHD4 is “neither Compound 26 nor Compound 1 altered”. For the same compound, at PPT1 (transfected lysates, pH 5.0, MU-6S-Palm-βD-Glc, read-out: PPT1 IC50, substrate assay), the pIC50 is 5.19.
In the case of `O=C(ON1C(=O)C2CN(Cc3ccc(Oc4ccccc4)cc3)CCN2C1=O)N1CCOCC1` (stereo not shown) [Compound 34, 1,3-dioxo-7-(4-phenoxybenzyl)hexahydroimidazo[1,5-a]pyrazin-2(3H)-yl morpholine-4-carboxylate], the results for the negative-log IC50 (pIC50) against ABHD4, on PPT1 (setting [1]) and at mABHD3 (setting [2]) were 6.30, < 4.30 and < 5.00, respectively. On PPT1, the “activity against PPT1 in situ and in vitro” value is “limited activity against PPT1”.
For the compound `COc1ccc(N2CCN(C(=O)ON3C(=O)C4CN(Cc5ccc(Oc6ccccc6)cc5)CCN4C3=O)CC2)cc1` (stereo not shown) [Compound 37, 1,3-dioxo-7-(4-phenoxybenzyl)hexahydroimidazo[1,5-a]pyrazin-2(3H)-yl 4-(4-methoxyphenyl)piperazine-1-carboxylate], the pIC50 on mABHD3 (setting [2]) was 5.12.
For `O=C(ON1C(=O)C2CN(Cc3ccc(Oc4ccccc4)cc3)CCN2C1=O)N1CCC(c2ccccc2)CC1` (stereo not shown) [Compound 38, 1,3-dioxo-7-(4-phenoxybenzyl)hexahydroimidazo[1,5-a]pyrazin-2(3H)-yl 4-phenylpiperidine-1-carboxylate], the pIC50 on mABHD3 (combined HEK293T lysates, gel-based ABPP, read-out: ABHD3 IC50) is 6.89; at mABHD3 (setting [2]), 7.00.
On to `COc1ccc(N2CCN(C(=O)ON3C(=O)[C@@H]4CN(CC5CCN(Cc6ccccc6)CC5)CCN4C3=O)CC2)cc1` [Compound 42, (S)-7-((1-benzylpiperidin-4-yl)methyl)-1,3-dioxo-hexahydroimidazo[1,5-a]pyrazin-2(3H)-yl 4-(4-methoxyphenyl)piperazine-1-carboxylate], for which the negative logarithm of the IC50 (pIC50) on PPT1 (human PPT1, in vitro, method not stated at Table 5, read-out: hPPT1 in vitro potency (IC50)) was 5.40.
